Test: Human HepG2 cell viability assay in 384 well format
Format: toxicity, cell-based
Design: dose 125 nL, time 70.5 hour; cytotoxicity at 70.5 h: concentration not given beside the values
Settings: HepG2 cells, read-out: Inhibition

COCCN1C[C@H]2CC[C@@H]1CN(Cc1cc(=O)c3cc(C)ccc3[nH]1)C2
cytotoxicity at 70.5 h: -7.09%

CCN(CC)c1ncccc1CNCc1ccc(-c2ccn[nH]2)s1
cytotoxicity at 70.5 h: -6.37%

CC(C)c1nc(CN(C)C(=O)C2CC(=O)N(Cc3ccncc3)C2)cs1 (centres undefined)
cytotoxicity at 70.5 h: 5.05%

Cc1cccc2cc(C(=O)N3CCC(F)(F)CC3)n(C)c12
cytotoxicity at 70.5 h: 32.7%

O=C1CCC2(CCNCC2)CN1CCCOc1cccnc1
cytotoxicity at 70.5 h: -1.48%

CCOCCn1c(=O)[nH]c2cc(C(=O)N(C)Cc3nc(C)c[nH]3)ccc21
cytotoxicity at 70.5 h: -5.85%

COCCN1CCN(Cc2ccc3nsnc3c2)[C@H]2CS(=O)(=O)C[C@H]21
cytotoxicity at 70.5 h: -5.97%

CCOc1ccc2nc(CN3CCC(CNC(C)=O)C3)ccc2c1 (centres undefined)
cytotoxicity at 70.5 h: 1.6%

COc1ccc(/C=C/CN2CCN(c3ncccc3C(N)=O)CC2)cc1
cytotoxicity at 70.5 h: -1.81%

N#Cc1cc2n(n1)CCN(C(=O)CCc1c[nH]c3ccccc13)C2
cytotoxicity at 70.5 h: -10.2%

CN(Cc1cnn(C)c1)C(=O)C1COc2ccccc2C1 (centres undefined)
cytotoxicity at 70.5 h: -5.03%

CN1CCN2CCN(C(=O)c3cnn4cc(CCO)cnc34)CC2C1 (centres undefined)
cytotoxicity at 70.5 h: -8.48%

CCn1ccnc1CN(C)c1cc(OC)ncn1
cytotoxicity at 70.5 h: -8.04%

Cc1cc(C)c2nc(CNCCNS(C)(=O)=O)cc(O)c2c1
cytotoxicity at 70.5 h: -2.21%

Cn1cc2ncn(CCC3CCN(Cc4ccccc4)C3)c(=O)c2n1 (centres undefined)
cytotoxicity at 70.5 h: -7%

CC(=O)Cc1c(C)nn(-c2cncc(C(N)=O)c2)c1C
cytotoxicity at 70.5 h: -9.56%

CSCC[C@H](NC(C)=O)c1nc(CC(C)C)n[nH]1
cytotoxicity at 70.5 h: 7.09%

CCOCCC(=O)NCC1COc2c(cccc2OC)C1 (centres undefined)
cytotoxicity at 70.5 h: -4.38%

Cc1noc(C)c1CN(C)C(=O)c1cnc(C2CC2)nc1O
cytotoxicity at 70.5 h: 8.69%

CCC(C(=O)NC1CCCCC1)n1ccc2ncccc2c1=O (centres undefined)
cytotoxicity at 70.5 h: -11.8%

O=C(Nc1ccccc1-c1ccccc1)N1C[C@@H]2CNC[C@]2(C(=O)O)C1
cytotoxicity at 70.5 h: -2.53%

CCC(CO)N(Cc1ccsc1)Cc1c(C)nn(C)c1Cl (centres undefined)
cytotoxicity at 70.5 h: -5.33%

Cc1cc(CN[C@H](C(N)=O)[C@@H](C)O)c(C)s1
cytotoxicity at 70.5 h: -3.69%

O=C(O)CC1COCCN1C(=O)C1(c2ccc(Cl)cc2)CCC1 (centres undefined)
cytotoxicity at 70.5 h: 5.66%

CCC(=O)N1CCN(C(=O)c2ccc(COC)o2)[C@H]2CS(=O)(=O)C[C@H]21
cytotoxicity at 70.5 h: -5.66%

CC1CCCCN1C1CN(C(=O)c2sccc2S(N)(=O)=O)C1 (centres undefined)
cytotoxicity at 70.5 h: -2.85%

CC(C)c1cc(C(=O)N2CCCC(Cn3cc(CO)nn3)C2)on1 (centres undefined)
cytotoxicity at 70.5 h: -2.32%

CN(CCCc1nccn1C)c1nccc(-c2cc(C(=O)O)ccn2)n1
cytotoxicity at 70.5 h: -3.33%

CN1CCc2[nH]nc(C(=O)N3CCCC4(CN(C)C(=O)O4)C3)c2C1 (centres undefined)
cytotoxicity at 70.5 h: -6.4%

O=C(NCCc1c[nH]cn1)C1CCCN(C2CCOCC2)C1 (centres undefined)
cytotoxicity at 70.5 h: -5.69%

CCN(CC)C(CNCc1ccc(C)o1)c1ccco1 (centres undefined)
cytotoxicity at 70.5 h: -11.7%

Cc1nnsc1CN1C[C@H]2CC[C@@H]1CN(Cc1ccc(F)cc1)C2
cytotoxicity at 70.5 h: 27.1%

CN(Cc1ccccc1)C1(C(=O)NCC(N)=O)Cc2ccccc2C1
cytotoxicity at 70.5 h: 5.7%

O=C1NC(C(=O)NCc2cccnc2Oc2ccc(F)c(F)c2)CO1 (centres undefined)
cytotoxicity at 70.5 h: -21.4%

COc1cc2c(cc1-c1nc3c(cnn3C)[nH]1)OCO2
cytotoxicity at 70.5 h: 12.3%

Cc1nc(N(C)C)nc(NCCc2ccccn2)c1C
cytotoxicity at 70.5 h: -9.09%

CCC(=O)N1CCN(C(=O)Nc2cccc(F)c2)[C@H]2CS(=O)(=O)C[C@H]21
cytotoxicity at 70.5 h: -2.91%

CCOCC1CCN(C(=O)C(c2ccc(F)cc2)N(C)C)CC1 (centres undefined)
cytotoxicity at 70.5 h: -8%

Nc1nc(CCCNC(=O)c2ccccc2C2CCNC2)cs1 (centres undefined)
cytotoxicity at 70.5 h: -20.9%

COc1cccc([C@H]2CN(C(=O)c3nnc4n3CCCC4)C[C@@H]2N)c1
cytotoxicity at 70.5 h: -3.91%

CC(C)C1CN(Cc2cnc(N(C)C)nc2)CCCN1CC1CC1 (centres undefined)
cytotoxicity at 70.5 h: -10%

CCSc1ncc(-c2cc(C3CC3)nc(N)c2C#N)cn1
cytotoxicity at 70.5 h: -4.52%

c1cn(CCc2c[nH]cn2)c(-c2cc(CN3CCCC3)cs2)n1
cytotoxicity at 70.5 h: -9.06%

COCCC1(CO)CCCN(C(=O)c2cccnc2O)C1 (centres undefined)
cytotoxicity at 70.5 h: -3.89%

— ChEMBL document CHEMBL3507680, “University of Dundee, Gates Library screen for HepG2 cell viability”
